{"source": "the supplement of paper PMC11061612", "key": {"[1]": {"system": "LAMA-84 (Chronic Myelogenous Leukemia)", "experiment": "combination Emax (second highest fraction inhibited in the dose matrix, 72 h); higher = more inhibition; extreme values may be limits of the assay", "how_it_was_run": "(§1)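 Cell lines grown in DMEM/F12 or RPMI with 10% FBS were plated in 1536-well plates and held 24 hours at 37°C, 5% CO2 before 72 hours of exposure to two-drug dose matrices, with DMSO typically at 0.2%. CellTiter-Glo 2.0 luminescence gave viability, which was converted to inhibition. Vehicle wells were set to 0 and blank wells to 1. Combination Emax is the second-highest inhibition in the matrix, and Bliss excess is the observed combination effect minus the expected EA + EB − EA·EB, where EA and EB are the single-agent effects.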"}, "[2]": {"system": "COLO-684 (Endometrial Carcinoma)", "experiment": "combination Emax (second highest fraction inhibited in the dose matrix, 72 h); higher = more inhibition; extreme values may be limits of the assay", "how_it_was_run": "as §1"}, "[3]": {"system": "SW684 (Other Solid Carcinomas)", "experiment": "combination Emax (second highest fraction inhibited in the dose matrix, 72 h); higher = more inhibition; extreme values may be limits of the assay", "how_it_was_run": "as §1"}, "[4]": {"system": "PANC-02-03 (Pancreatic Carcinoma)", "experiment": "Bliss excess, mean over the matrix (fraction); higher = more synergy", "how_it_was_run": "as §1"}, "[5]": {"system": "SJRH30 (Rhabdomyosarcoma)", "experiment": "Bliss excess, mean over the matrix (fraction); higher = more synergy", "how_it_was_run": "as §1"}, "HuO-3N1 (Osteosarcoma)": {"system": "HuO-3N1 (Osteosarcoma)", "experiment": "Bliss excess, mean over the matrix (fraction); higher = more synergy", "how_it_was_run": "as §1"}, "[6]": {"system": "RMG-I (Ovarian Carcinoma)", "experiment": "Bliss excess, mean over the matrix (fraction); higher = more synergy", "how_it_was_run": "as §1"}, "[7]": {"system": "OV-90 (Ovarian Carcinoma)", "experiment": "Bliss excess, mean over the matrix (fraction); higher = more synergy", "how_it_was_run": "as §1"}, "CHL-1 (Melanoma)": {"system": "CHL-1 (Melanoma)", "experiment": "Bliss excess, mean over the matrix (fraction); higher = more synergy", "how_it_was_run": "as §1"}, "[8]": {"system": "NCI-H1755 (Lung Adenocarcinoma)", "experiment": "Bliss excess, mean over the matrix (fraction); higher = more synergy", "how_it_was_run": "as §1"}, "[9]": {"system": "SK-MM-2 (Plasma Cell Myeloma)", "experiment": "Bliss excess, mean over the matrix (fraction); higher = more synergy", "how_it_was_run": "as §1"}, "[10]": {"system": "COLO-684 (Endometrial Carcinoma)", "experiment": "Bliss excess, mean over the matrix (fraction); higher = more synergy", "how_it_was_run": "as §1"}, "[11]": {"system": "CML-T1 (Chronic Myelogenous Leukemia)", "experiment": "Bliss excess, mean over the matrix (fraction); higher = more synergy", "how_it_was_run": "as §1"}, "[12]": {"system": "LOUCY (T-Lymphoblastic Leukemia)", "experiment": "Bliss excess, mean over the matrix (fraction); higher = more synergy", "how_it_was_run": "as §1"}, "ES-2 (Ovarian Carcinoma)": {"system": "ES-2 (Ovarian Carcinoma)", "experiment": "Bliss excess, mean over the matrix (fraction); higher = more synergy", "how_it_was_run": "as §1"}, "[13]": {"system": "Becker (Low Grade Glioma)", "experiment": "Bliss excess, mean over the matrix (fraction); higher = more synergy", "how_it_was_run": "as §1"}, "[14]": {"system": "EB-3 (Burkitt's Lymphoma)", "experiment": "Bliss excess, mean over the matrix (fraction); higher = more synergy", "how_it_was_run": "as §1"}, "KYM-1 (Rhabdomyosarcoma)": {"system": "KYM-1 (Rhabdomyosarcoma)", "experiment": "Bliss excess, mean over the matrix (fraction); higher = more synergy", "how_it_was_run": "as §1"}, "[15]": {"system": "PC-14 (Lung Adenocarcinoma)", "experiment": "Bliss excess, mean over the matrix (fraction); higher = more synergy", "how_it_was_run": "as §1"}, "[16]": {"system": "SW684 (Other Solid Carcinomas)", "experiment": "Bliss excess, mean over the matrix (fraction); higher = more synergy", "how_it_was_run": "as §1"}}, "data": [{"molecule": "CS(=O)(=O)CCNCc1ccc(-c2ccc3ncnc(Nc4ccc(OCc5cccc(F)c5)c(Cl)c4)c3c2)o1", "note": "[Lapatinib] + NC1(c2ccc(-c3nc4ccn5c(=O)[nH]nc5c4cc3-c3ccccc3)cc2)CCC1 [MK-2206] (first compound max 10 µM, 7x7, partner max 10 µM)", "values": [{"measurement": "combination Emax", "setting": "[1]", "result": 0.642}, {"measurement": "combination Emax", "setting": "[2]", "result": 0.893}, {"measurement": "combination Emax", "setting": "[3]", "result": 0.686}, {"measurement": "Bliss excess", "setting": "[4]", "result": -0.0011}, {"measurement": "Bliss excess", "setting": "[5]", "result": 0.0103}, {"measurement": "Bliss excess", "setting": "HuO-3N1 (Osteosarcoma)", "result": -0.0437}, {"measurement": "Bliss excess", "setting": "[6]", "result": -0.0219}, {"measurement": "Bliss excess", "setting": "[7]", "result": -0.0225}, {"measurement": "Bliss excess", "setting": "CHL-1 (Melanoma)", "result": 0.0221}, {"measurement": "Bliss excess", "setting": "[8]", "result": -0.0085}, {"measurement": "Bliss excess", "setting": "[9]", "result": 0.0329}, {"measurement": "Bliss excess", "setting": "[10]", "result": 0.0322}, {"measurement": "Bliss excess", "setting": "[11]", "result": -0.016}, {"measurement": "Bliss excess", "setting": "[12]", "result": -0.0343}, {"measurement": "Bliss excess", "setting": "ES-2 (Ovarian Carcinoma)", "result": -0.131}, {"measurement": "Bliss excess", "setting": "[13]", "result": 0.0516}, {"measurement": "Bliss excess", "setting": "[14]", "result": -0.0251}, {"measurement": "Bliss excess", "setting": "KYM-1 (Rhabdomyosarcoma)", "result": 0.0255}, {"measurement": "Bliss excess", "setting": "[15]", "result": 0.0188}, {"measurement": "Bliss excess", "setting": "[16]", "result": 0.0223}]}]}
